From publication PMC4302236, “Functional profile of a novel modulator of serotonin, dopamine, and glutamate neurotransmission” (Psychopharmacology, 2014)

How the values were obtained:
[1] = system: muscarinic cholinergic receptors; assay: Binding to muscarinic cholinergic receptors
[2] = system: serine 40 (S40)-phosphorylated tyrosine hydroxylase; assay: Striatal tyrosine hydroxylase S40 phosphorylation state (CNSProfile immunoblotting); format: in vivo; details: mice, acute; ITI-007 3 mg/kg p.o., clozapine 5 i.p., aripiprazole 10 p.o., olanzapine 1 i.p., risperidone 3 p.o., haloperidol 1 i.p.; over 60 min; vs vehicle
Experimental: The effect of the selected compounds on the phosphorylation state of tyrosine hydroxylase (TH) was measured and quantitated as an indicator of the potential of each compound to perturb presynaptic dopamine synthesis in striatum. […] This technique preserves in vivo levels of brain protein phosphorylation ([Zhu et al. 2010]). […] Small aliquots of the homogenate were retained for protein determination by the bicinchoninic acid (BCA) protein assay method (Pierce Chemical Co., Rockford, IL). […] Immunoblotting was carried out using a phos-phorylation state-specific polyclonal antibody raised against […] (S40)-phosphorylated tyrosine hydroxylase (Chemicon, Temecula, CA) and a pan-TH monoclonal antibody for measuring the total protein levels (BD Biosciences, San Jose, CA). […] Antibody binding was detected and quantitated using a LiCor Odyssey infrared fluorescent detection system. Phosphorylation at each site detected by phospho-specific antibodies was quantified, normalized to total levels of the protein (non-phosphorylated), and expressed as percent±SEM of the level of phosphorylation in vehicle-treated control mice (N=6).

5-HT2A receptor = 5-HT2A receptor (Homo sapiens, UniProt P28223); details: read-out: IC50, antagonism of serotonin-induced increase in calcium fluorescence; serotonin 30 nM
5-HT2A receptor, sequence (P28223 whole entry): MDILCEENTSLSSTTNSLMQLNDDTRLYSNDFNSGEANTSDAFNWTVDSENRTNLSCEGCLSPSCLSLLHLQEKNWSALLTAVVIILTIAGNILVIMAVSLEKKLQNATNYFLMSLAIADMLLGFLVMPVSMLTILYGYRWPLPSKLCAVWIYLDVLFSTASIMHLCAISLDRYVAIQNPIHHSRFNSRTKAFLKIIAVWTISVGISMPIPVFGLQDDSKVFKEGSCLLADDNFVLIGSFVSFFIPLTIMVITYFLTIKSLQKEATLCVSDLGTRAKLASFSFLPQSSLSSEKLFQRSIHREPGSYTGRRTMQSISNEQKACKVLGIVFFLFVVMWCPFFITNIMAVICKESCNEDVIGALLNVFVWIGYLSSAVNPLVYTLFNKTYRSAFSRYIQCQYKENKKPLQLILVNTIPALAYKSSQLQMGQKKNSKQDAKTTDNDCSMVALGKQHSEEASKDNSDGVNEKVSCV

CN1CCN2c3c(cccc31)[C@@H]1CN(CCCC(=O)c3ccc(F)cc3)CC[C@@H]12 [ITI-007, 1-(4-fluoro-phenyl)-4-((6bR,10aS)-3-methyl-2,3,6b,9,10,10a-hexahydro-1H,7H-pyrido[3′,4′:4,5]pyrrolo[1,2,3-de]quinoxalin-8-yl)-butan-1-one]
Binding to muscarinic cholinergic receptors (e.g., M3 subclasses) [1]: no significant binding | Effect on TH phosphorylation at S40 in striatum [2]: no significant effect | IC50 (5-HT2A receptor): 7 nM
